Reference: patent EP0544958A1, “Cephalosporin compounds and processes for preparing the same” (TANABE SEIYAKU CO., LTD., priority 1991, dated 1993)
Structures can show the parent of a compound that is named as a salt.

What was measured:
[1] = system: Staphylococcus aureus 209P JC-1; assay: antimicrobial activity compared with ceftazidime; format: cell-based; details: relative to ceftazidime
[2] = system: Citrobacter freundii GN346; assay: antimicrobial activity against β-lactamase-producing bacteria compared with ceftazidime; format: cell-based; details: relative to ceftazidime
[3] = system: Staphylococcus epidermidis Kawamura; assay: antimicrobial activity compared with ceftazidime; format: cell-based; details: relative to ceftazidime
[4] = system: clinical isolates of MRSA; assay: antibacterial activity (90 % inhibitory concentration) against clinical isolates; format: cell-based, methicillin resistant Staphylococcus aureus (MRSA); details: relative to ceftazidime
[5] = system: mice; assay: acute toxicity by intravenous administration; format: in vivo; details: dose of 1 g/kg, five mice, within five days after administration
Source text: Moreover, the desired compounds [I] or pharmaceutically acceptable salts thereof have high absorbability in the living tissue, and the treatment effects thereof last for a long time so that the compounds [I] of the present invention show an excellent defense effect in infectious diseases caused by various microorganisms including Staphylococcus aureus and Pseudomonas aeruginosa. In addition, the desired compounds [I] of the present invention and pharmaceutically acceptable salts thereof have low toxicity and show high safety as medicaments.

Row | SMILES | antimicrobial activity, times stronger as compared with ceftazidime [1] | antimicrobial activity, times stronger than ceftazidime [2] | antimicrobial activity, times stronger as compared with ceftazidime [3] | antibacterial activity (90 % inhibitory concentration), times superior to that of ceftazidime [4] | acute toxicity (mice that died) [5]
1 | Nc1nc(/C(=N/OC(C(=O)O)c2ccc(O)c3[nH]c(=O)ccc23)C(=O)N[C@@H]2C(=O)N3C(C(=O)[O-])=C(C[n+]4cccc5ccccc54)CS[C@H]23)cs1 (stereo partly drawn) [Example 3, 7β-{(Z)-2-(2-aminothiazol-4-yl)-2-[(8-hydroxy-2-oxo-1H-quinolin-5-yl)(caboxy)methyloxyimino]acetamido}-3-(1-quinoliniomethyl)-3-cephem-4-carboxylic acid sodium salt] | more than 32 times | more than 4 times |  |  | 
2 | Nc1nc(/C(=N/OC(C(=O)O)c2ccc(O)c3[nH]c(=O)ccc23)C(=O)N[C@@H]2C(=O)N3C(C(=O)[O-])=C(C[n+]4ccccc4)CS[C@H]23)cs1 (stereo partly drawn) [Example 4, 7β-{(Z)-2-(2-aminothiazol-4-yl)-2-[(8-hydroxy-2-oxo-1H-quinolin-5-yl)(carboxy)methyloxyimino]acetamido}-3-(1-pyridiniomethyl)-3-cephem-4-carboxylic acid sodium salt] |  | more than 4 times | more than 16 times |  | 
3 | Cc1c(N)ccc[n+]1CC1=C(C(=O)[O-])N2C(=O)[C@@H](NC(=O)/C(=N\OC(C(=O)O)c3ccc(O)c4[nH]c(=O)ccc34)c3csc(N)n3)[C@H]2SC1 (stereo partly drawn) [Example 27, 7β-{(Z)-2-(2-aminothiazol-4-yl)-2-[(8-hydroxy-2-oxo-1H-quinolin-5-yl)(carboxy)methyloxyimino]acetamido}-3-(3 amino-2-methyl-1-pyridiniomethyl)-3-cephem-4-carboxylic acid sodium salt] |  |  | more than 16 times | about 16 times | none of the five mice
